From patent publication EP0238178B1, “Novel derivatives of erythromycylamine” (ELI LILLY AND COMPANY, priority 1986, dated 1987)
In brackets after ≈: the same amount, converted by molar mass. Like-named read-outs stand apart in the source and are kept apart here.

How the values were obtained:
[1] = tested on: Staphylococcus epidermidis 222; assay: MIC, standard agar-dilution assay; assay type: cell-based; settings: read-out: MIC
[2] = tested on: Staphylococcus aureus X1.1; assay: MIC, standard agar-dilution assay; assay type: cell-based; settings: read-out: MIC
[3] = tested on: Staphylococcus aureus X400; assay: MIC, standard agar-dilution assay; assay type: cell-based; settings: Staphylococcus aureus X400, Methicillin-resistant strain, inducibly-resistant to erythromycin; read-out: MIC
Source text: (§1) In addition to excellent in vitro activity against erythromycin-sensitive bacteria, several members of this new series have shown in vitro activity against erythromycin-resistant strains. These include strains which are inducibly-resistant to erythromycin (S.. aureus V41 and X400 and S. epidermidis EPI1) and even strains which are constitutively-resistant (S. epidermidis 270).

[4] = tested on: Staphylococcus aureus V41; assay: MIC, standard agar-dilution assay; assay type: cell-based; settings: Staphylococcus aureus V41, Penicillin-resistant strain, inducibly-resistant to erythromycin; read-out: MIC
Source text: as §1

[5] = tested on: Streptococcus sp. group D X66; assay: MIC, standard agar-dilution assay; assay type: cell-based
[6] = tested on: Klebsiella pneumoniae X68; assay: MIC, standard agar-dilution assay; assay type: cell-based; settings: read-out: MIC
Staphylococcus aureus = assay: Experimental bacterial infection in mice, ED50; assay type: in vivo; settings: Staphylococcus aureus, po, two doses, dose protecting 50% of animals, read-out: Oral ED50
Method: (§2) The new derivatives of this invention have also shown in vivo antimicrobial activity against experimental bacterial infections. When two doses of test compound were administered to mice in experimental infections, the activity observed was measured as an EDso value [effective dose in mg/kg to protect 50% of the test animals: see Warren Wick, et al., J. Bacteriol. 81, 233-235 (1961)].

Streptococcus pneumoniae = assay: Experimental bacterial infection in mice, ED50; assay type: in vivo; settings: two doses, dose protecting 50% of animals; for ED50: Streptococcus pneumoniae, po, read-out: Oral ED50
Method: as §2

Streptococcus pyogenes = assay: Experimental bacterial infection in mice, ED50; assay type: in vivo; settings: two doses, dose protecting 50% of animals; for ED50: Streptococcus pyogenes, po, read-out: Oral ED50
Method: as §2

Escherichia coli EC14 = assay: MIC, standard agar-dilution assay; assay type: cell-based; settings: read-out: MIC
[7] = tested on: Streptococcus pyogenes C203; assay: MIC, standard agar-dilution assay; assay type: cell-based; settings: read-out: MIC
[8] = tested on: Haemophilus influenzae 76; assay: MIC, standard agar-dilution assay; assay type: cell-based; settings: Haemophilus influenzae 76, Ampicillin-resistant strain; read-out: MIC
[9] = tested on: Streptococcus sp. group D 2041; assay: MIC, standard agar-dilution assay; assay type: cell-based; settings: read-out: MIC
[10] = tested on: Staphylococcus aureus S13E; assay: MIC, standard agar-dilution assay; assay type: cell-based
[11] = tested on: Haemophilus influenzae C.L.; assay: MIC, standard agar-dilution assay; assay type: cell-based; settings: Ampicillin-sensitive strain, read-out: MIC
[12] = tested on: Streptococcus pneumoniae Park I; assay: MIC, standard agar-dilution assay; assay type: cell-based; settings: read-out: MIC
[13] = Streptococcus sp. group D X66, read-out: MIC

| SMILES | MIC [1] [µg/mL] | MIC [2] [µg/mL] | MIC [3] [µg/mL] | MIC [4] [µg/mL] | MIC ([5]; Streptococcus) [µg/mL] | MIC [6] [µg/mL] | ED50 (Staphylococcus aureus) [mg/kg] | ED50 (Streptococcus pneumoniae) [mg/kg] | ED50 (Streptococcus pyogenes) [mg/kg] | MIC (Escherichia coli EC14) [µg/mL] | MIC [7] [µg/mL] | MIC [8] [µg/mL] | MIC [9] [µg/mL] | MIC [10] [µg/mL] | MIC [11] [µg/mL] | MIC [5, 13] [µg/mL] | MIC [12] [µg/mL] | Oral ED50 (Streptococcus pneumoniae; oral) [mg/kg] | Oral ED50 (Streptococcus pyogenes; oral) [mg/kg] |
| --- | --- | --- | --- | --- | --- | --- | --- | --- | --- | --- | --- | --- | --- | --- | --- | --- | --- | --- | --- |
| CC[C@H]1OC(=O)[C@H](C)[C@@H](O[C@H]2C[C@@](C)(OC)[C@@H](O)[C@H](C)O2)[C@H](C)[C@@H](O[C@@H]2O[C@H](C)C[C@H](N(C)C)[C@H]2O)[C@](C)(O)C[C@@H](C)[C@H](NC)[C@H](C)[C@@H](O)[C@]1(C)O [Compound 1, 9-Deoxo-9-(methylamino)erythromycin] | 0.25 (≈ 0.334 µM) | 1 (≈ 1.34 µM) | 64 (≈ 85.4 µM) | 64 (≈ 85.4 µM) | 0.125 (≈ 0.167 µM) | 64 (≈ 85.4 µM) | 43.8 | 35.4 | 21 | 32 (≈ 42.7 µM) | 0.06 (≈ 0.0801 µM) | 1 (≈ 1.34 µM) | 1 (≈ 1.34 µM) | 0.125 (≈ 0.167 µM) | 0.5 (≈ 0.668 µM) |  |  |  |  |
| CCCCN[C@@H]1[C@H](C)[C@@H](O)[C@](C)(O)[C@@H](CC)OC(=O)[C@H](C)[C@@H](O[C@H]2C[C@@](C)(OC)[C@@H](O)[C@H](C)O2)[C@H](C)[C@@H](O[C@@H]2O[C@H](C)C[C@H](N(C)C)[C@H]2O)[C@](C)(O)C[C@H]1C [Compound 4, 9-Deoxo-9-(n-butylamino)erythromycin] | 0.25 (≈ 0.316 µM) | 0.25 (≈ 0.316 µM) |  |  |  | 128 (≈ 162 µM) | 14.7 | 12.5 | 12.5 | 64 (≈ 80.9 µM) | 0.06 (≈ 0.0758 µM) | 1 (≈ 1.26 µM) | 1 (≈ 1.26 µM) | 1 (≈ 1.26 µM) | 1 (≈ 1.26 µM) | 0.125 (≈ 0.158 µM) | 0.015 (≈ 0.019 µM) |  |  |
| CCCCCN[C@@H]1[C@H](C)[C@@H](O)[C@](C)(O)[C@@H](CC)OC(=O)[C@H](C)[C@@H](O[C@H]2C[C@@](C)(OC)[C@@H](O)[C@H](C)O2)[C@H](C)[C@@H](O[C@@H]2O[C@H](C)C[C@H](N(C)C)[C@H]2O)[C@](C)(O)C[C@H]1C [Compound 5, 9-Deoxo-9-(n-pentylamino)erythromycin] | 0.5 (≈ 0.621 µM) | 0.5 (≈ 0.621 µM) |  |  |  | 128 (≈ 159 µM) | 25 | 13.6 | 8.8 | 128 (≈ 159 µM) | 0.06 (≈ 0.0745 µM) | 2 (≈ 2.48 µM) | 2 (≈ 2.48 µM) | 1 (≈ 1.24 µM) | 1 (≈ 1.24 µM) | 0.125 (≈ 0.155 µM) | 0.015 (≈ 0.0186 µM) |  |  |
| CCCCCCCCN[C@@H]1[C@H](C)[C@@H](O)[C@](C)(O)[C@@H](CC)OC(=O)[C@H](C)[C@@H](O[C@H]2C[C@@](C)(OC)[C@@H](O)[C@H](C)O2)[C@H](C)[C@@H](O[C@@H]2O[C@H](C)C[C@H](N(C)C)[C@H]2O)[C@](C)(O)C[C@H]1C [Compound 8, 9-Deoxo-9-(n-octylamino)erythromcin] | 0.25 (≈ 0.295 µM) | 0.5 (≈ 0.59 µM) | 8 (≈ 9.44 µM) | 8 (≈ 9.44 µM) |  |  | > 50 | 46.1 | 23.4 |  | 0.015 (≈ 0.0177 µM) | 1 (≈ 1.18 µM) | 1 (≈ 1.18 µM) | 0.25 (≈ 0.295 µM) | 1 (≈ 1.18 µM) | 0.06 (≈ 0.0708 µM) | 0.015 (≈ 0.0177 µM) | > 50 | 38.3 |
| CCCCCCCCCCN[C@@H]1[C@H](C)[C@@H](O)[C@](C)(O)[C@@H](CC)OC(=O)[C@H](C)[C@@H](O[C@H]2C[C@@](C)(OC)[C@@H](O)[C@H](C)O2)[C@H](C)[C@@H](O[C@@H]2O[C@H](C)C[C@H](N(C)C)[C@H]2O)[C@](C)(O)C[C@H]1C [Compound 9, 9-Deoxo-9-(n-decylamino)erythromycin] | 1 (≈ 1.14 µM) | 1 (≈ 1.14 µM) | 8 (≈ 9.14 µM) | 4 (≈ 4.57 µM) |  |  | > 50 | > 50 | > 50 |  | 0.015 (≈ 0.0171 µM) | 1 (≈ 1.14 µM) | 2 (≈ 2.29 µM) | 0.5 (≈ 0.571 µM) | 2 (≈ 2.29 µM) | 0.25 (≈ 0.286 µM) | 0.015 (≈ 0.0171 µM) |  |  |
| CCCCCCCCCCCCN[C@@H]1[C@H](C)[C@@H](O)[C@](C)(O)[C@@H](CC)OC(=O)[C@H](C)[C@@H](O[C@H]2C[C@@](C)(OC)[C@@H](O)[C@H](C)O2)[C@H](C)[C@@H](O[C@@H]2O[C@H](C)C[C@H](N(C)C)[C@H]2O)[C@](C)(O)C[C@H]1C [Compound 10, 9-Deoxo-9-(n-dodecylamino)erythromycin] | 4 (≈ 4.43 µM) | 4 (≈ 4.43 µM) | 8 (≈ 8.86 µM) | 8 (≈ 8.86 µM) |  |  | > 45 | > 50 | > 50 |  | 0.5 (≈ 0.554 µM) | 4 (≈ 4.43 µM) | 8 (≈ 8.86 µM) | 2 (≈ 2.21 µM) | 8 (≈ 8.86 µM) | 1 (≈ 1.11 µM) | 0.06 (≈ 0.0664 µM) |  |  |
| CC[C@H]1OC(=O)[C@H](C)[C@@H](O[C@H]2C[C@@](C)(OC)[C@@H](O)[C@H](C)O2)[C@H](C)[C@@H](O[C@@H]2O[C@H](C)C[C@H](N(C)C)[C@H]2O)[C@](C)(O)C[C@@H](C)[C@H](NCCC(C)C)[C@H](C)[C@@H](O)[C@]1(C)O [Compound 11, 9-Deoxo-9-[(3-methylbutyl)amino]erythromycin] | 0.25 (≈ 0.311 µM) | 1 (≈ 1.24 µM) |  |  |  | 128 (≈ 159 µM) | 12.5 | 10.8 | 8.8 | 128 (≈ 159 µM) | 0.06 (≈ 0.0745 µM) | 1 (≈ 1.24 µM) | 1 (≈ 1.24 µM) | 0.5 (≈ 0.621 µM) | 1 (≈ 1.24 µM) | 0.125 (≈ 0.155 µM) | 0.03 (≈ 0.0373 µM) |  |  |
| CC[C@H]1OC(=O)[C@H](C)[C@@H](O[C@H]2C[C@@](C)(OC)[C@@H](O)[C@H](C)O2)[C@H](C)[C@@H](O[C@@H]2O[C@H](C)C[C@H](N(C)C)[C@H]2O)[C@](C)(O)C[C@@H](C)[C@H](NCC2CCCCCCC2)[C@H](C)[C@@H](O)[C@]1(C)O [Compound 16, 9-Deoxo-9-[(cyclooctylmethyl)amino]erythromycin] | 0.25 (≈ 0.291 µM) | 0.5 (≈ 0.582 µM) | 64 (≈ 74.5 µM) | 64 (≈ 74.5 µM) |  |  |  |  |  | 64 (≈ 74.5 µM) | < 0.008 | 1 (≈ 1.16 µM) | 1 (≈ 1.16 µM) | 0.06 (≈ 0.0698 µM) | 1 (≈ 1.16 µM) | < 0.008 |  |  |  |
| CC[C@H]1OC(=O)[C@H](C)[C@@H](O[C@H]2C[C@@](C)(OC)[C@@H](O)[C@H](C)O2)[C@H](C)[C@@H](O[C@@H]2O[C@H](C)C[C@H](N(C)C)[C@H]2O)[C@](C)(O)C[C@@H](C)[C@H](NCC(C)(C)CO)[C@H](C)[C@@H](O)[C@]1(C)O [Compound 22, 9-Deoxo-9-[(3-hydroxy-2,2-dimethylpropyl)amino]erythromycin] | 1 (≈ 1.22 µM) | 1 (≈ 1.22 µM) |  |  |  | 64 (≈ 77.9 µM) | > 50 | 46.1 | 19.8 | 32 (≈ 39 µM) | 0.03 (≈ 0.0365 µM) | 0.25 (≈ 0.304 µM) | 4 (≈ 4.87 µM) | 1 (≈ 1.22 µM) | 1 (≈ 1.22 µM) | 0.25 (≈ 0.304 µM) | 0.015 (≈ 0.0183 µM) |  |  |
| CC[C@H]1OC(=O)[C@H](C)[C@@H](O[C@H]2C[C@@](C)(OC)[C@@H](O)[C@H](C)O2)[C@H](C)[C@@H](O[C@@H]2O[C@H](C)C[C@H](N(C)C)[C@H]2O)[C@](C)(O)C[C@@H](C)[C@H](NCCC(C)CCCC(C)(C)OC)[C@H](C)[C@@H](O)[C@]1(C)O (stereo partly shown) [Compound 24, 9-Deoxo-9-[(7-methoxy-3,7-dimethyloctyl)amino]erythromycin] | 0.25 (≈ 0.276 µM) | 0.5 (≈ 0.552 µM) | 64 (≈ 70.7 µM) | 64 (≈ 70.7 µM) |  |  | > 45.6 | 23.6 | 25 | 128 (≈ 141 µM) | 0.015 (≈ 0.0166 µM) | 2 (≈ 2.21 µM) | 2 (≈ 2.21 µM) | 0.25 (≈ 0.276 µM) | 1 (≈ 1.1 µM) | 0.03 (≈ 0.0331 µM) |  |  |  |
| CC[C@H]1OC(=O)[C@H](C)[C@@H](O[C@H]2C[C@@](C)(OC)[C@@H](O)[C@H](C)O2)[C@H](C)[C@@H](O[C@@H]2O[C@H](C)C[C@H](N(C)C)[C@H]2O)[C@](C)(O)C[C@@H](C)[C@H](NCCOCCOC)[C@H](C)[C@@H](O)[C@]1(C)O [Compound 25, 9-Deoxo-9-[[2-(2-methoxyethoxy)ethyl]amino]erythromycin] | 1 (≈ 1.19 µM) | 1 (≈ 1.19 µM) |  |  |  | 128 (≈ 153 µM) | 23.3 | 21.8 | 27.1 | 64 (≈ 76.5 µM) | 0.125 (≈ 0.149 µM) | 4 (≈ 4.78 µM) | 8 (≈ 9.56 µM) | 8 (≈ 9.56 µM) | 2 (≈ 2.39 µM) | 0.25 (≈ 0.299 µM) | 0.015 (≈ 0.0179 µM) |  |  |
